From patent US11597721B2, “Heterocyclic compounds comprising pyridine useful as modulators of IL-12, IL-23 and/or IFNα responses” (BRISTOL-MYERS SQUIBB COMPANY, priority 2018, dated 2023)

Tested on: IFNα-Induced STAT Phosphorylation
Test: IFNα-Induced STAT Phosphorylation in Human Whole Blood
Format: cell-based
Conditions: Homo sapiens, 1 h compound incubation, 1000 U/mL recombinant human IFNα A/D for 15 min, pSTAT5 in CD3 positive population, read-out: LE Human WB IFNα-Induced Stat Phosph. (IC50)
From the text: IFNα-Induced STAT Phosphorylation in Human Whole Blood
The amount of pSTAT5 expression was quantitated by median fluorescence intensity after gating on the CD3 positive population.

Row | SMILES | IC50
1 | [2H]C([2H])([2H])NC(=O)c1nnc(NC(=O)OC)cc1Nc1nccc(-c2noc(CN3CCCCS3(=O)=O)n2)c1OC [Example 64, methyl N-{5-[(4-{5-[(1,1-dioxo-1λ^6,2-thiazinan-2-yl)methyl]-1,2,4-oxadiazol-3-yl}-3-methoxypyridin-2-yl)amino]-6-[(^2H3)methylcarbamoyl]pyridazin-3-yl}carbamate] | 90 nM
2 | [2H]C([2H])([2H])NC(=O)c1nnc(NC(=O)CC)cc1Nc1nccc(-c2noc(CN3CCOCC3)n2)c1OC [Example 65, 4-[(3-methoxy-4-{5-[(morpholin-4-yl)methyl]-1,2,4-oxadiazol-3-yl}pyridin-2-yl)amino]-N—(^2H3)methyl-6-propanamidopyridazine-3-carboxamide] | 120 nM
3 | [2H]C([2H])([2H])NC(=O)c1nnc(NC(=O)CC)cc1Nc1nccc(-c2noc(COC)n2)c1OC [Example 66, 4-({3-methoxy-4-[5-(methoxymethyl)-1,2,4-oxadiazol-3-yl]pyridin-2-yl}amino)-N—(^2H3)methyl-6-propanamidopyridazine-3-carboxamide] | 210 nM
4 | [2H]C([2H])([2H])NC(=O)c1nnc(NC(=O)CC2CC2)cc1Nc1nccc(-c2noc(CN(C)S(C)(=O)=O)n2)c1OC [Example 67, 6-(2-cyclopropylacetamido)-4-[(3-methoxy-4-{5-[(N-methylmethanesulfonamido)methyl]-1,2,4-oxadiazol-3-yl}pyridin-2-yl)amino]-N—(^2H3)methylpyridazine-3-carboxamide] | 70 nM
5 | [2H]C([2H])([2H])NC(=O)c1nnc(NC(=O)CC(C)C)cc1Nc1nccc(-c2noc(COC)n2)c1OC [Example 68, 4-({3-methoxy-4-[5-(methoxymethyl)-1,2,4-oxadiazol-3-yl]pyridin-2-yl}amino)-N—(^2H3)methyl-6-(3-methylbutanamido)pyridazine-3-carboxamide] | 1420 nM
6 | [2H]C([2H])([2H])NC(=O)c1nnc(NC(=O)CC(C)C)cc1Nc1nccc(-c2noc(CN3CCOCC3)n2)c1OC [Example 69, 4-[(3-methoxy-4-{5-[(morpholin-4-yl)methyl]-1,2,4-oxadiazol-3-yl}pyridin-2-yl)amino]-N—(^2H3)methyl-6-(3-methylbutanamido)pyridazine-3-carboxamide] | 700 nM
7 | [2H]C([2H])([2H])NC(=O)c1nnc(NC(=O)CC(C)C)cc1Nc1nccc(-c2noc(CN(C)S(C)(=O)=O)n2)c1OC [Example 70, 4-[(3-methoxy-4-{5-[(N-methylmethanesulfonamido)methyl]-1,2,4-oxadiazol-3-yl}pyridin-2-yl)amino]-N—(^2H3)methyl-6-(3-methylbutanamido)pyridazine-3-carboxamide] | 240 nM
8 | [2H]C([2H])([2H])NC(=O)c1nnc(NC(=O)CC(C)C)cc1Nc1nccc(-c2noc(CN3CCOC3=O)n2)c1OC [Example 71, 4-[(3-methoxy-4-{5-[(2-oxo-1,3-oxazolidin-3-yl)methyl]-1,2,4-oxadiazol-3-yl}pyridin-2-yl)amino]-N—(^2H3)methyl-6-(3-methylbutanamido)pyridazine-3-carboxamide] | 420 nM
9 | [2H]C([2H])([2H])NC(=O)c1nnc(NC(=O)CC2COC2)cc1Nc1nccc(-c2noc(COC)n2)c1OC [Example 76, 4-({3-methoxy-4-[5-(methoxymethyl)-1,2,4-oxadiazol-3-yl]pyridin-2-yl}amino)-N—(^2H3)methyl-6-[2-(oxetan-3-yl)acetamido]pyridazine-3-carboxamide] | 180 nM
10 | [2H]C([2H])([2H])NC(=O)c1nnc(Nc2cc(C(C)(C)O)ccn2)cc1Nc1nccc(-c2noc(C)n2)c1OC [Example 80, 6-{[4-(2-hydroxypropan-2-yl)pyridin-2-yl]amino}-4-{[3-methoxy-4-(5-methyl-1,2,4-oxadiazol-3-yl)pyridin-2-yl]amino}-N—(^2H3)methylpyridazine-3-carboxamide] | 600 nM
11 | [2H]C([2H])([2H])NC(=O)c1nnc(NC(=O)CC)cc1Nc1nccc(-c2noc(C)n2)c1OC [Example 81, 4-{[3-methoxy-4-(5-methyl-1,2,4-oxadiazol-3-yl)pyridin-2-yl]amino}-N—(^2H3)methyl-6-propanamidopyridazine-3-carboxamide] | 220 nM
12 | [2H]C([2H])([2H])NC(=O)c1nnc(Nc2ccc(C(C)(C)O)cn2)cc1Nc1nccc(-c2noc(C)n2)c1OC [Example 82, 6-{[5-(2-hydroxypropan-2-yl)pyridin-2-yl]amino}-4-{[3-methoxy-4-(5-methyl-1,2,4-oxadiazol-3-yl)pyridin-2-yl]amino}-N—(^2H3)methylpyridazine-3-carboxamide] | 30 nM
13 | [2H]C([2H])([2H])NC(=O)c1cnc(NC(=O)C2CC2)cc1Nc1nccc(-c2ccccn2)c1OC [Example 84, 6-(Cyclopropanecarboxamido)-4-((3′-methoxy-[2,4′-bipyridin]-2′-yl)amino)-N-(methyl-d3)nicotinamide] | 80 nM
14 | [2H]C([2H])([2H])NC(=O)c1cnc(NC(=O)C2CC2)cc1Nc1nccc(-c2ccc(NC(=O)C3CC3)cn2)c1OC [Example 85, 6-(Cyclopropanecarboxamido)-4-((5-(cyclopropanecarboxamido)-3′-methoxy-[2,4′-bipyridin]-2′-yl)amino)-N-(methyl-d3)nicotinamide] | 150 nM
15 | [2H]C([2H])([2H])NC(=O)c1cnc(NC(=O)C2CC2)cc1Nc1nccc(-c2ccc(Cl)cn2)c1OC [Example 86, 4-((5-Chloro-3′-methoxy-[2,4′-bipyridin]-2′-yl)amino)-6-(cyclopropanecarboxamido)-N-(methyl-d3)nicotinamide] | 480 nM
16 | [2H]C([2H])([2H])NC(=O)c1nnc(NC(=O)C2CC2)cc1Nc1nccc(-c2cnc(C(=O)N(C)C)cn2)c1OC [Example 87, 6-(Cyclopropanecarboxamido)-4-((4-(5-(dimethylcarbamoyl)pyrazin-2-yl)-3-methoxypyridin-2-yl)amino)-N-(methyl-d3)pyridazine-3-carboxamide] | 30 nM
17 | [2H]C([2H])([2H])NC(=O)c1nnc(NC(=O)C2CC2)cc1Nc1nccc(-c2cnc(C(=O)N(C)CC)cn2)c1OC [Example 88, 6-(Cyclopropanecarboxamido)-4-((4-(5-(ethyl(methyl)carbamoyl)pyrazin-2-yl)-3-methoxypyridin-2-yl)amino)-N-(methyl-d3)pyridazine-3-carboxamide] | 130 nM
18 | [2H]C([2H])([2H])NC(=O)c1nnc(NC(=O)CC2CC2)cc1Nc1nccc(-c2cnc(C(=O)N(C)C)cn2)c1OC [Example 89, 6-(2-Cyclopropylacetamido)-4-((4-(5-(dimethylcarbamoyl)pyrazin-2-yl)-3-methoxypyridin-2-yl)amino)-N-(methyl-d3)pyridazine-3-carboxamide] | 210 nM
19 | [2H]C([2H])([2H])NC(=O)c1nnc(Nc2ccn(C)n2)cc1Nc1nccc(-c2cnc(C(=O)N(C)C)cn2)c1OC [Example 90, 4-((4-(5-(Dimethylcarbamoyl)pyrazin-2-yl)-3-methoxypyridin-2-yl)amino)-N-(methyl-d3)-6-((1-methyl-1H-pyrazol-3-yl)amino)pyridazine-3-carboxamide] | 60 nM
20 | [2H]C([2H])([2H])NC(=O)c1nnc(Nc2cc(C)n(C)n2)cc1Nc1nccc(-c2cnc(C(=O)N(C)C)cn2)c1OC [Example 91, 6-((1,5-Dimethyl-1H-pyrazol-3-yl)amino)-4-((4-(5-(dimethylcarbamoyl)pyrazin-2-yl)-3-methoxypyridin-2-yl)amino)-N-(methyl-d3)pyridazine-3-carboxamide] | 90 nM
21 | [2H]C([2H])([2H])NC(=O)c1nnc(Nc2cc(Cl)n(C)n2)cc1Nc1nccc(-c2cnc(C(=O)N(C)C)cn2)c1OC [Example 92, 6-((5-Chloro-1-methyl-1H-pyrazol-3-yl)amino)-4-((4-(5-(dimethylcarbamoyl)pyrazin-2-yl)-3-methoxypyridin-2-yl)amino)-N-(methyl-d3)pyridazine-3-carboxamide] | 90 nM
22 | [2H]C([2H])([2H])NC(=O)c1cnc(Nc2cc(C)ccn2)cc1Nc1nccc(-c2nnn(C)n2)c1OC [Example 103, 4-((3-methoxy-4-(2-methyl-2H-tetrazol-5-yl)pyridin-2-yl)amino)-N-(methyl-d3)-6-((4-methylpyridin-2-yl)amino)nicotinamide] | 280 nM
23 | [2H]C([2H])([2H])NC(=O)c1cnc(NC(=O)CC)cc1Nc1nccc(-c2nnn(C)n2)c1OC [Example 105, 4-{[3-methoxy-4-(2-methyl-2H-1,2,3,4-tetrazol-5-yl)pyridin-2-yl]amino}-N—(^2H3)methyl-6-propanamidopyridine-3-carboxamide] | 90 nM
24 | [2H]C([2H])([2H])NC(=O)c1cnc(Nc2cc(C#N)ccn2)cc1Nc1nccc(-c2nnn(C)n2)c1OC [Example 106, 6-[(4-cyanopyridin-2-yl)amino]-4-{[3-methoxy-4-(2-methyl-2H-1,2,3,4-tetrazol-5-yl)pyridin-2-yl]amino}-N—(^2H3)methylpyridine-3-carboxamide] | 70 nM
